Nine molecules from patent US20240228491A1, “METHIONINE ADENOSYLTRANSFERASE INHIBITOR, PREPARATION METHOD THEREFOR AND APPLICATION THEREOF” (SCINNOHUB PHARMACEUTICAL CO., LTD., priority 2021, published 2024) can be followed below.

One assay relates to HCT116 MTAP-/- cells. As to the kind of experiment: Activity test of HCT116 MTAP gene homozygous deletion cells (CellTiter-Glo). The settings on record: Homo sapiens, HCT-116, 120 h incubation, read-out: HCT116 MTAP-/- Cell IC50. The class given is cell-based. Here is the method: On day 1, cell seeding: after digestion of the cells with trypsin, the cells were resuspended to the desired density with the complete medium (RPMI-1640 supplemented with 10% FBS; the brand of FBS is EXCELL, Cat. No. FND500; the brand of RPMI-1640 is ATCC, Cat. No. 30-2001), mixed evenly, and added into the 96-well plate at 100 μL/well with a cell density of 1000-3000 cells per well. The plate was put back to the incubator for the adherent growth of cells. On day 2, the addition of the compounds to be tested: before the addition of the compounds, the cells were starved with serum-free medium for 4 h, then the complete medium containing the corresponding concentration of compounds was added thereto, and the cells were incubated at 37° C., 5% CO2 for 120 h. On day 7, the cell culture plates were taken out from incubator and equilibrated to room temperature. 50 μL of CellTiter-Glo (Promega Company, Cat. No. G7571) reagent was added per well, and the cells were fully lysed by shaking at room temperature for 2 min, and then incubated for another 60 min to detect the fluorescence intensity. Calculation formula:
(§1) % Inhibition=100−(signal of the well with the compound to be tested−signal of the well with only medium and free of cells)/(signal of the well with cells but without addition of the compound−signal of the well with only medium and free of cells)×100.
The fitting dose-effect curve of the analysis software GraphPad Prism 5 was used to give IC50 values of the individual compounds against cellular activity.
On the technique in general: Cellular ATP, detected with luciferase, serves as a proxy for viable cell number.

A further assay relates to KP-4 cells. Nature of the assay: Inhibitory activity test of KP-4 cells. Format: cell-based. The settings on record: Homo sapiens, 144 h incubation, read-out: KP-4 cell inhibitory activity IC50. Here is the method:
On day 1, cell seeding: after digestion of the cells with trypsin, the cells were resuspended to 1*10^4/mL with RPMI1640 complete medium (HyClone Company, Cat. No. SH30809.01) supplemented with 10% FBS (Gibco, 10099141C), mixed evenly, and added into the 96-well plate at 100 μL/well. The plate was put back to the incubator for the adherent growth of cells. On day 2, the addition of the compounds to be tested: 100 μL of the complete medium containing the compounds (the concentration of the compound in the medium was formulated as follows: 3-fold gradient dilution from 60 μM, 10 concentration gradients in total) was added, incubated for 144 hours at 37° C., 5% CO2. On day 8, the cell culture plates were taken out from incubator and equilibrated to room temperature, excess medium was pipetted from the wells so that 50 μL of supernatant was retained, and 50 μL of CellCounting-Lite 2.0 (Nanjing Vazyme Biotech Co., Ltd., Cat. No. DD1101) reagent was added per well, and the cells were fully lysed by shaking at room temperature for 10 min, and incubated for 5 min to detect the fluorescence intensity.
as §1
(§2) The log value of concentration was used as the X-axis and % Inhibition was used as the Y-axis, so as to fit the dose-effect curve and calculate the IC50 value using nonlinear regression (dose response−variable slope) in the analysis software GraphPad Prism 8.

A further assay concerns DOHH-2 cells. Nature of the assay: Inhibitory activity test of DOHH-2 cells. The class given is cell-based. The note with it: Homo sapiens, 120 h incubation, CellTiter-Glo, read-out: DOHH-2 cell inhibitory activity IC50. Here is the method:
On day 1, cell seeding: cells were resuspended to the desired density with DMEM complete medium (Gibico, Cat. No. 10569010) supplemented with 10% FBS (Gibco, 10099141C), mixed evenly, and added into the 384-well plate at 30 μL/well with a cell density of 800/well. The compounds to be tested were added as follows: 30 nL of DMSO solution containing the compound (the concentration of the compound in which was formulated as: 3-fold gradient dilution from 10 mM, 10 concentration points in total) was added, incubated for 120 h at 37° C., 5% CO2. On day 6, the cells treated with compounds were removed and equilibrated to room temperature, 30 μL of CellTiter-Glo (Promega company, Cat. No. G7573) reagent was added per well, and the cells were fully lysed by shaking at room temperature, and then incubated in dark at 37° C., 5% CO2 for 30 min, to detect the fluorescence intensity.
% Inhibition=100−(signal of the well with the compound to be tested−signal of the well with only medium and free of cells)/(signal of the well with cells but without the addition of the compound−signal of the well with only medium and free of cells)×100.
as §2

The target of a further assay is MAT2a (Homo sapiens (Human), UniProt P31153). Nature of the assay: MAT2a enzymatic activity test (colorimetric assay). Format: biochemical. The note with it: OD620, 150 min reaction, read-out: IC50 against MAT2a. Here is the method:
The Colorimetric assay method was used to detect the IC50 value of the tested compounds on MAT2a.
The specific steps were as follows: The compounds having the test starling concentration of 1 μM or 10 μM were diluted into 10 concentration points in a 3-fold gradient. 250 nL of the solutions of the compounds to be tested with 10 different concentrations were taken and added into a 384 well plate for later use. 20 μg/mL of MAT2a enzyme solution was prepared with Assay buffer (50 mM Tris, 50 mM KCl, 10 mM MgCl2, 0.05% polyoxyethylene lauryl ether, pH 8.0). 15 μL of the MAT2a enzyme solution at 20 μg/mL was add into the wells of the compounds to be tested at different concentrations; and 15 μL of Assay buffer was added into the negative control well. An incubation was carried out for 15 minutes after shaking for mixing well. A mixed substrate solution (comprising 400 μM ATP and 600 μM L-Methionine) was prepared with Assay buffer. 10 μL of the mixed substrate solution was added to the positive control well, the compound to be tested well, and the negative control well, respectively, and the reaction began, for a reaction time of 150 min. Then, 50 μL of the reaction stop solution (BIOMOL Green™ Reagent Enzo lifesciences, Cargo No. BML-AK111-1000) was added to stop the reaction, followed by being centrifuged at 1000 rpm for 60 s and then being incubated for 15 min. OD620 was read and data were processed.
By using the log value of the concentration as the X-axis and the inhibition % as the Y-axis, the IC50 value of each compound against enzyme activity was obtained through employing the log(inhibitor) vs. response-Variable slope fitting dose-effect curve of the analysis software GraphPad Prism 5.

Sequence of MAT2a (P31153 whole entry): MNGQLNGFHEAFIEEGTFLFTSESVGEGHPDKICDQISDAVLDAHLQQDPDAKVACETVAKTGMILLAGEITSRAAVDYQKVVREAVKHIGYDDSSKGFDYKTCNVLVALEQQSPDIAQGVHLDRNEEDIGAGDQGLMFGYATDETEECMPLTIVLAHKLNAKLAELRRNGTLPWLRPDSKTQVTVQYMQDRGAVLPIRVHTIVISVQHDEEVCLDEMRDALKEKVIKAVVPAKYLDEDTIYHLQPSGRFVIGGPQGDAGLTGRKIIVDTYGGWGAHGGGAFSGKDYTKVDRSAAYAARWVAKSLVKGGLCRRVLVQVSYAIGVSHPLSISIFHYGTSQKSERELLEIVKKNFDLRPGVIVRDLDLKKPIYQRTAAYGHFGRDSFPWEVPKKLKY

`COCCn1cc2cc(-c3c(N)c4ccc(C(F)(F)F)nc4n(-c4ccc(Cl)cc4)c3=O)ccc2n1` [Example 48]: the IC50 was found to be 13.3 nM in the assay with HCT116 MTAP-/- cells, 170 nM in the assay on KP-4 cells, 518 nM in the assay on DOHH-2 cells and 16.1 nM at MAT2a.
The like results for `COc1ccc(-c2c(N)c3ccc(C(F)(F)F)nc3n(-c3ccc(Cl)cc3)c2=O)cn1` [Example 20] were, in that order, 24.5 nM, 650 nM, 48 nM and 11.5 nM.
On to `Cc1ccc(-n2c(=O)c(-c3ccco3)c(N)c3ccc(C(F)(F)F)nc32)cc1` [Example 31], for which the IC50 with HCT116 MTAP-/- cells amounted to 13.4 nM; in the assay with DOHH-2 cells, 430 nM; at MAT2a, 15.4 nM.
Turning to `COCCn1ncc2cc(-c3c(N)c4ccc(C(F)(F)F)nc4n(-c4ccc(Cl)cc4)c3=O)ccc21` [Example 47], the IC50 with HCT116 MTAP-/- cells stood at 15.2 nM; in the assay on KP-4 cells, 550 nM; in the assay with DOHH-2 cells, 559 nM; at MAT2a, 13.6 nM.
Take `Nc1c(-c2ccc3ncsc3c2)c(=O)n(-c2ccc(Cl)cc2)c2nc(C(F)(F)F)ccc12` [Example 21]: the IC50 with HCT116 MTAP-/- cells stood at 22.9 nM; with KP-4 cells, 270 nM; in the assay on DOHH-2 cells, 507 nM; on MAT2a it was 16.2 nM.
The like results for `Nc1c(-c2ccc3ncncc3c2)c(=O)n(-c2ccc(Cl)cc2)c2nc(C(F)(F)F)ccc12` [Example 46] were, in that order, 20.2 nM, 180 nM, 251 nM and 15.1 nM.
The like results for `Cn1cc(-c2c(N)c3ccc(C(F)(F)F)nc3n(-c3ccc(Cl)cc3)c2=O)ccc1=O` [Example 44] were, in that order, 18.6 nM, 490 nM, 495 nM and 13.4 nM.
Regarding `Cn1cc2cc(-c3c(N)c4ccc(C(F)(F)F)nc4n(-c4ccc(Cl)cc4)c3=O)ccc2n1` [Example 25], the IC50 stood at 13 nM with HCT116 MTAP-/- cells, 1220 nM in the assay with KP-4 cells, 507 nM in the assay with DOHH-2 cells and 13.3 nM at MAT2a.
With `Nc1c(-c2ccc3nonc3c2)c(=O)n(-c2ccc(Cl)cc2)c2nc(C(F)(F)F)ccc12` [Example 69], the IC50 with DOHH-2 cells was 663 nM; at MAT2a, 16.6 nM.
